# Results published in patent publication US20020061325A1, “Container for 4-allylanisole and analog scolytid pesticides” (priority 1993, published 2002).
# Experiments:
# [1] = tested on: southern pine beetle; test: Laboratory assay for effectiveness of repellent (circle of compound on cardboard, beetle response); assay type: in vivo; parameters: BEHAVIORAL RATING: scale not given here; settings: for BEHAVIORAL RATING: numerical score for degree of behavioral response; for repelled behavioral response (in words): laboratory tests
# Experimental: A) Laboratory Assay for Effectiveness of Repellent
# The candidate compound was applied as a circle (17 cm in diameter by 5 mm in width) to a 28 by 21.5 cm piece of uncoated cardboard using a camel-hair brush. Three minutes after application, a beetle was placed in the center of the circle. In each trial, at least 20 healthy-appearing beetles were tested. Testing was conducted at room temperature (22°-25° C.) with light supplied from an adjoining room. The beetles were briefly refrigerated prior to testing to reduce their tendency to fly immediately upon release. An object was used to cast a shadow over the test circle in order to minimize response to light, which could interfere with the interpretation of insect response to an applied substance.
# [2] = tested on: southern pine beetle; test: Field assay with frontalure-baited Lindgren funnel traps; assay type: in vivo; settings: for rank (relative repellency, 1 = best repellent): frontalure plus test compound; for mean rank: mean over the trials in which the compound was tested; for rank in reduction of trap captures: the two field trials in which they were tested, relative to 4-allylanisole
# Experimental: B) Field Assays of the Effectiveness of Repellents
# Field assays were carried out with selected 4-allylanisole analogs, including 4-allylanisole, anisole, 4-isopropylanisole, allylbenzene, 4-methylstyrene, toluene, and trans-anethole. The protocol for these assays is similar to that previously described (Hayes, et al., 1994a; Hayes and Strom, 1994c, both incorporated by reference as if fully set forth herein). Populations of local southern pine beetle were tested for response to these compounds using baited Lindgren funnel (16-funnel) traps. Traps were placed in or near active infestations of southern pine beetle over the course of the summer of 1997. Treatment baits consisted of the attractant frontalure and frontalure plus the test compound released from a 4-ml Samco pipette bulb. Hayes, et al., (J. Vozzo [ed.] Research and applications of chemical sciences in forestry: Proceeding of the 4th Southern Station Chemical Sciences Meeting, GTR-SO-104:69-80, 1994). Frontalure is a combination of frontalin, which is an aggregation pheromone of the southern pine beetle, and a-pinene, a synergistic host oleoresin compound. In most cases, each trap array consisted of a total of six traps: one frontalure-only treatment; one frontalure plus 4-allylanisole treatment, and four traps containing treatments of frontalure plus a 4-allylanisole analog. In one instance a 12-trap array was employed, the array having two traps per treatment.
# (§1) Release rates were determined in preliminary studies using simple gravimetric measurement of bulbs to provide elution in mg/day units. Release rates of all analog compounds were equal to or greater than that of 4-allylanisole. Placement of treatments was originally assigned at random and rotated sequentially with each collection. Each array was collected through two full rotations. Whole traps were moved in order to eliminate the possibility of contamination. Collection cups contained a 5.5×2 cm piece of pest strip, containing as its active ingredient the insecticidal agent 2,2 dichlorovinyldimethylphosphate to kill the captured insects. The numbers of captured southern pine beetle and of predatory clerid beetle Thanasimus dubius, the most important natural enemy of the southern pine beetle, were determined. Data were analyzed using ANOVA (SAS PROC GLM) to determine if the mean numbers of southern pine beetles or clerids were affected by treatment. The positions of the traps were also taken into consideration in the model.
# [3] = Release rate by gravimetric measurement of pipette bulbs; assay type: physicochemical; settings: elution from 4-ml Samco pipette bulb, preliminary studies
# Experimental: as §1
# [4] = 30-second exposure, 3 min after application, at least 20 beetles per trial, 22-25 C
# [5] = compounds marked * : originally tested with sample size of 45-53 beetles, published in Hayes et al. 1994
structure (smiles),measurement,setting,value
CCOc1ccccc1OC [2-ethoxyanisole],% REPELLED,[1]; [4],40%
same,BEHAVIORAL RATING,[1]; 30-second exposure,2
CCc1ccccc1O [2-ethylphenol],% REPELLED,[1]; [4],50%
same,BEHAVIORAL RATING,[1]; 30-second exposure,2
COCC(=O)c1ccccc1 [2-methoxyacetophenone],% REPELLED,[1]; [4],8%
same,BEHAVIORAL RATING,[1]; 30-second exposure,2
COc1ccccc1CO [2-methoxybenzyl alcohol],% REPELLED,[1]; [4],0%
same,BEHAVIORAL RATING,[1]; 30-second exposure,1
COc1ccccc1C [2-methylanisole],% REPELLED,[1]; [4],35%
same,BEHAVIORAL RATING,[1]; 30-second exposure,1
CCCc1ccccc1OC [2-propylanisole],% REPELLED,[1]; [4],8%
same,BEHAVIORAL RATING,[1]; 30-second exposure,2
CCCc1ccccc1O [2-propylphenol],BEHAVIORAL RATING,[1]; 30-second exposure,2
COc1cccc(C(C)=O)c1 [3-methoxyacetophenone],% REPELLED,[1]; [4],8%
same,BEHAVIORAL RATING,[1]; 30-second exposure,2
COc1cccc(CO)c1 [3-methoxybenzyl alcohol],% REPELLED,[1]; [4],0%
same,BEHAVIORAL RATING,[1]; 30-second exposure,1
C=CCc1ccc(OC)cc1 [4-allylanisole],"rank (relative repellency, 1 = best repellent)",[2]; TRIAL 1,1
same,"rank (relative repellency, 1 = best repellent)",[2]; TRIAL 2,1
same,"rank (relative repellency, 1 = best repellent)",[2]; TRIAL 3,1
same,"rank (relative repellency, 1 = best repellent)",[2]; TRIAL 4,1
same,"rank (relative repellency, 1 = best repellent)",[2]; TRIAL 5,1
same,"rank (relative repellency, 1 = best repellent)",[2]; TRIAL 6,1
same,beetles captured relative to other treatments,[2]; all trials,fewest
same,mean rank,[2],1.0
same,release rate,[3],15.6 mg/day
COc1ccc(C(C)C)cc1 [4-isopropylanisole],% REPELLED,[1]; [5],>90%
same,"rank (relative repellency, 1 = best repellent)",[2]; TRIAL 1,4
same,"rank (relative repellency, 1 = best repellent)",[2]; TRIAL 2,2
same,"rank (relative repellency, 1 = best repellent)",[2]; TRIAL 3,2
same,"rank (relative repellency, 1 = best repellent)",[2]; TRIAL 4,5
same,"rank (relative repellency, 1 = best repellent)",[2]; TRIAL 5,3
same,"rank (relative repellency, 1 = best repellent)",[2]; TRIAL 6,2
same,mean rank,[2],3.5
same,release rate,[3],16.45 mg/day
COc1ccc(C(C)=O)cc1 [4-methoxyacetophenone],% REPELLED,[1]; [4],96%
same,BEHAVIORAL RATING,[1]; 30-second exposure,3
COc1ccc(C=CC#N)cc1 [4-methoxycinnamonitrile],% REPELLED,[1]; [5],<20%
COc1ccc(CC#N)cc1 [4-methoxypheylacetonitrile],% REPELLED,[1]; [5],<30%
COc1ccc(C)cc1 [4-methylanisole],% REPELLED,[1]; [4],45%
same,BEHAVIORAL RATING,[1]; 30-second exposure,2
C=Cc1ccc(C)cc1 [4-methylstyrene],repelled behavioral response (in words),[1],modest repellent response
same,BEHAVIORAL RATING,[1]; 30-second exposure,2
same,"rank (relative repellency, 1 = best repellent)",[2]; TRIAL 3,2
same,"rank (relative repellency, 1 = best repellent)",[2]; TRIAL 4,3
same,mean rank,[2],2.5
same,rank in reduction of trap captures,[2],second and third
same,release rate,[3],674.75 mg/day
COc1ccc(C(C)(C)C)cc1 [4-tert-butylanisole],% REPELLED,[1]; [4],0%
same,BEHAVIORAL RATING,[1]; 30-second exposure,1
C=Cc1ccc(OC)cc1 [4-vinylanisole],% REPELLED,[1]; [4],24%
same,BEHAVIORAL RATING,[1]; 30-second exposure,2
C=CCc1ccccc1 [allylbenzene],% REPELLED,[1]; [5],>90%
same,"rank (relative repellency, 1 = best repellent)",[2]; TRIAL 1,5
same,"rank (relative repellency, 1 = best repellent)",[2]; TRIAL 2,5
same,"rank (relative repellency, 1 = best repellent)",[2]; TRIAL 5,2
same,"rank (relative repellency, 1 = best repellent)",[2]; TRIAL 6,4
same,mean rank,[2],4.0
same,release rate,[3],128.2 mg/day
COc1ccccc1 [anisole],% REPELLED,[1]; [5],>80%
same,"rank (relative repellency, 1 = best repellent)",[2]; TRIAL 1,3
same,"rank (relative repellency, 1 = best repellent)",[2]; TRIAL 2,4
same,"rank (relative repellency, 1 = best repellent)",[2]; TRIAL 3,4
same,"rank (relative repellency, 1 = best repellent)",[2]; TRIAL 4,2
same,"rank (relative repellency, 1 = best repellent)",[2]; TRIAL 5,5
same,"rank (relative repellency, 1 = best repellent)",[2]; TRIAL 6,3
same,mean rank,[2],3.5
same,release rate,[3],52.2 mg/day
CCCCc1ccccc1 [butylbenzene],% REPELLED,[1]; [4],39%
same,BEHAVIORAL RATING,[1]; 30-second exposure,2
CC(C)c1ccccc1 [cumene],% REPELLED,[1]; [4],55%
same,BEHAVIORAL RATING,[1]; 30-second exposure,3
CCc1ccccc1 [ethylbenzene],% REPELLED,[1]; [4],72%
same,BEHAVIORAL RATING,[1]; 30-second exposure,3
C=CCc1ccc(O)c(OC)c1 [eugenol],% REPELLED,[1]; [5],<40%
Cc1cccc(C)c1 [m-xylene],% REPELLED,[1]; [4],34%
same,BEHAVIORAL RATING,[1]; 30-second exposure,2
Cc1ccccc1C [o-xylene],% REPELLED,[1]; [4],46%
same,BEHAVIORAL RATING,[1]; 30-second exposure,2
COc1ccc(C=O)cc1 [p-anisaldehyde],% REPELLED,[1]; [4],65%
same,BEHAVIORAL RATING,[1]; 30-second exposure,3
Cc1ccc(C(C)C)cc1 [p-cymene],% REPELLED,[1]; [4],28%
same,BEHAVIORAL RATING,[1]; 30-second exposure,2
Cc1ccc(C)cc1 [p-xylene],% REPELLED,[1]; [4],50%
same,BEHAVIORAL RATING,[1]; 30-second exposure,2
CCOc1ccccc1 [phenetole],BEHAVIORAL RATING,[1]; 30-second exposure,2
CCCc1ccccc1 [propylbenzene],% REPELLED,[1]; [4],17%
same,BEHAVIORAL RATING,[1]; 30-second exposure,1
Cc1ccccc1 [toluene],repelled behavioral response (in words),[1],modest repellent response
same,BEHAVIORAL RATING,[1]; 30-second exposure,2
same,"rank (relative repellency, 1 = best repellent)",[2]; TRIAL 1,2
same,"rank (relative repellency, 1 = best repellent)",[2]; TRIAL 2,3
same,mean rank,[2],2.5
same,rank in reduction of trap captures,[2],second and third
same,release rate,[3],462.6 mg/day
C/C=C/c1ccc(OC)cc1 [trans-anethole],% REPELLED,[1]; [5],<20%
same,"rank (relative repellency, 1 = best repellent)",[2]; TRIAL 3,3
same,"rank (relative repellency, 1 = best repellent)",[2]; TRIAL 4,4
same,"rank (relative repellency, 1 = best repellent)",[2]; TRIAL 5,4
same,"rank (relative repellency, 1 = best repellent)",[2]; TRIAL 6,6
same,mean rank,[2],4.25
same,release rate,[3],44.65 mg/day
